According to ChEMBL document CHEMBL5291721, “A preclinical secondary pharmacology resource illuminates target-adverse drug reaction associations of marketed drugs” (Nat Commun, 2023):

Tests used:
[1] = target: Voltage-dependent L-type calcium channel subunit alpha-1C (Rattus norvegicus, UniProt P22002); assay type: functional
[2] = target: T1, Amine oxidase [flavin-containing] A (Homo sapiens, UniProt P21397); assay type: functional
T1 sequence (P21397 whole entry): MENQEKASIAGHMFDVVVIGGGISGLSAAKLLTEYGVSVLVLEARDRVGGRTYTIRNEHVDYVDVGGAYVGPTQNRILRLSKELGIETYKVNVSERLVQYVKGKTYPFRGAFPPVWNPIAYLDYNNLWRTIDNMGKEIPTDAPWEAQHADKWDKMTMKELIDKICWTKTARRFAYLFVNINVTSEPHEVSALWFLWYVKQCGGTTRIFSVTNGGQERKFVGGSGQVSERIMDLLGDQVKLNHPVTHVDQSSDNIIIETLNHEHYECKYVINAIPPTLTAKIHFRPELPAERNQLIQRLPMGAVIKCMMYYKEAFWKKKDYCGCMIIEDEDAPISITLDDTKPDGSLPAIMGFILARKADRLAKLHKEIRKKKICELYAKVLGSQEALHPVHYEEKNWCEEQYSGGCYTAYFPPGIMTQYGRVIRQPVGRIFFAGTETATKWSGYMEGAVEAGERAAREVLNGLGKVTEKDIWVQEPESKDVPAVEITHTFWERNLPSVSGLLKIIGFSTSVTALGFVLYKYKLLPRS

[3] = target: 5-hydroxytryptamine receptor 2A (Homo sapiens, UniProt P28223); assay type: functional, cell-based
[4] = target: T2, Muscarinic acetylcholine receptor M1 (Homo sapiens, UniProt P11229); assay type: functional
T2 sequence (P11229 whole entry): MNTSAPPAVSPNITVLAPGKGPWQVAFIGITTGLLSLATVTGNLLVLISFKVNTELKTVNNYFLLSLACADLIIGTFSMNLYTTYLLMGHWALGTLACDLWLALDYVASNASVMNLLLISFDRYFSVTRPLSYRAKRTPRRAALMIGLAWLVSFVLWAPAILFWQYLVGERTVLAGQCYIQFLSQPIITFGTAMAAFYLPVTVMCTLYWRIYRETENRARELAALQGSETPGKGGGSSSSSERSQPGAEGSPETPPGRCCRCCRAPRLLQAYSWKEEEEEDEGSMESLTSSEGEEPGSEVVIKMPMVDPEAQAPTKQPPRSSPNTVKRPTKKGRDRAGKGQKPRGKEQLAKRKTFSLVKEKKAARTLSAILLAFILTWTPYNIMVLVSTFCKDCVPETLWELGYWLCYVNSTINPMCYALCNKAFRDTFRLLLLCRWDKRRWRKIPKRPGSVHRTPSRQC

[5] = target: Voltage-gated inwardly rectifying potassium channel KCNH2 (Homo sapiens, UniProt Q12809); assay type: functional; conditions: read-out: AC50
Sequence of Voltage-gated inwardly rectifying potassium channel KCNH2 (Q12809 whole entry): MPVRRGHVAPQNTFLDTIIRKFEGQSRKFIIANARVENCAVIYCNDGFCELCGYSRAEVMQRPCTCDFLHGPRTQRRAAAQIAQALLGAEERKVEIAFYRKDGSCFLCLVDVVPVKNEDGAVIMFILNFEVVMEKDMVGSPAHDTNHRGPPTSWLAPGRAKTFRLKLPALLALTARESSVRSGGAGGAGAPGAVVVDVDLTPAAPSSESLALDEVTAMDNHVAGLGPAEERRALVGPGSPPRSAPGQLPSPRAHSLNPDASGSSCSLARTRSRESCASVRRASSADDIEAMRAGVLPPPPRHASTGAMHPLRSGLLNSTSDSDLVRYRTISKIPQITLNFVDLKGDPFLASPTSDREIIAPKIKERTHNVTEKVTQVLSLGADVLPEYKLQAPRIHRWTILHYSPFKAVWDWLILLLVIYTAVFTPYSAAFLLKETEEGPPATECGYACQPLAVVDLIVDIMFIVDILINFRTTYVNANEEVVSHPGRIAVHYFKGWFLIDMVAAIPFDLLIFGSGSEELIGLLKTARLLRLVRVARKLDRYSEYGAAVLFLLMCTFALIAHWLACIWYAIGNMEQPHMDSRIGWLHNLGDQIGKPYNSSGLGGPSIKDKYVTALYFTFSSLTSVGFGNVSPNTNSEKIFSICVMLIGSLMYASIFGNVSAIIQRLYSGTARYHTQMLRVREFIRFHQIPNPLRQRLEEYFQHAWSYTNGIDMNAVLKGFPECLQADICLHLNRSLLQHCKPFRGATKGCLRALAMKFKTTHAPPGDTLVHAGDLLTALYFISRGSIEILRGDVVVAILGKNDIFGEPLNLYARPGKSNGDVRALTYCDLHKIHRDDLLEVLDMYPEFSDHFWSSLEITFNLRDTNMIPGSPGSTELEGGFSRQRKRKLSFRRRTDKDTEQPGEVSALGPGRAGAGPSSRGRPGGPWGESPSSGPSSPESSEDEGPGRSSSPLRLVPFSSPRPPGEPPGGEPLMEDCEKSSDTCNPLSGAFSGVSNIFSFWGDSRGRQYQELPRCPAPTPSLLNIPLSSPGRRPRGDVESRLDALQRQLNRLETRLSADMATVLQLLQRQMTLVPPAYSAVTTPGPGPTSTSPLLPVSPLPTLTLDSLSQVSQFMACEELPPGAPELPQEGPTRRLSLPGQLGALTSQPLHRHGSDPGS

[6] = target: Sodium-dependent dopamine transporter (Homo sapiens, UniProt Q01959)
Sequence of Sodium-dependent dopamine transporter (Q01959 whole entry): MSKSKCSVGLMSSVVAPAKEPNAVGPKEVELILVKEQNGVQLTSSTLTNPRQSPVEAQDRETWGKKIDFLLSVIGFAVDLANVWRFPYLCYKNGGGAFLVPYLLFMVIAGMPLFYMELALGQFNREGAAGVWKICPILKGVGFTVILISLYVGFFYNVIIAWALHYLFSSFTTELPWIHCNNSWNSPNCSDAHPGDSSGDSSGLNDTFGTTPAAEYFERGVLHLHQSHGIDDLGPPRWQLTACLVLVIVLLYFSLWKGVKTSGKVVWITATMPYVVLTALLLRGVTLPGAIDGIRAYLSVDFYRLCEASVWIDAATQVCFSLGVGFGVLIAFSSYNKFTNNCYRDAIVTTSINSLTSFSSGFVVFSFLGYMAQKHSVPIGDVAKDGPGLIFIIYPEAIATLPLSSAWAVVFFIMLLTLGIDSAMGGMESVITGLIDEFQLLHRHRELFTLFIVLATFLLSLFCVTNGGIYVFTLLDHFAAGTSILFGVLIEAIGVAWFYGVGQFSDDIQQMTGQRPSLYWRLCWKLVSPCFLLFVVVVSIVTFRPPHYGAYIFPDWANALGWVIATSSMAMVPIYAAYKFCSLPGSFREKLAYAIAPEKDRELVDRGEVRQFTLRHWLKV

[7] = target: T3, Progesterone receptor (Homo sapiens, UniProt P06401)
T3 sequence (P06401 whole entry): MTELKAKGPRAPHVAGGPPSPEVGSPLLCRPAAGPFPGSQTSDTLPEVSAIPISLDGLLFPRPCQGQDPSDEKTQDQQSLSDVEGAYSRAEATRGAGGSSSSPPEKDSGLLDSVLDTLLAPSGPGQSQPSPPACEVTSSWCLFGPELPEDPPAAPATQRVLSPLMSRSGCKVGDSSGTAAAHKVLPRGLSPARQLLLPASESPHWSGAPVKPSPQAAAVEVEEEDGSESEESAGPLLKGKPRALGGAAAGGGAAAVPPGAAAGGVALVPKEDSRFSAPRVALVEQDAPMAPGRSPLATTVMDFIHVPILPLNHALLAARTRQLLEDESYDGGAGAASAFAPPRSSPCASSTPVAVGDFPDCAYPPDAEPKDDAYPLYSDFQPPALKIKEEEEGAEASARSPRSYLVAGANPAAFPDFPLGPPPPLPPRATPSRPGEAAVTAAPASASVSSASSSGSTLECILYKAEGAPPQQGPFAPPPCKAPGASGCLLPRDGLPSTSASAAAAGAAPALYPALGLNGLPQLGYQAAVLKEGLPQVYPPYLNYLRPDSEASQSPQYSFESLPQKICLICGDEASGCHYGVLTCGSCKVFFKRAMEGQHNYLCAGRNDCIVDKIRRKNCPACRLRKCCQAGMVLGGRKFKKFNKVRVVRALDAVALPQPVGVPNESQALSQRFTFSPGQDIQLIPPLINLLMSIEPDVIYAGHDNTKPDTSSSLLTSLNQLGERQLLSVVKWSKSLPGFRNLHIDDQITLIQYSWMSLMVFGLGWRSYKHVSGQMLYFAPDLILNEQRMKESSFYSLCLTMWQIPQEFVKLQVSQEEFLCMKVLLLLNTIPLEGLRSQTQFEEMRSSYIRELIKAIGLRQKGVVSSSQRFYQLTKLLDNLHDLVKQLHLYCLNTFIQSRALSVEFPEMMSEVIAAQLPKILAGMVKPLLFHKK

[8] = target: Prostaglandin G/H synthase 1 (Homo sapiens, UniProt P23219); assay type: functional
Sequence of Prostaglandin G/H synthase 1 (P23219 whole entry): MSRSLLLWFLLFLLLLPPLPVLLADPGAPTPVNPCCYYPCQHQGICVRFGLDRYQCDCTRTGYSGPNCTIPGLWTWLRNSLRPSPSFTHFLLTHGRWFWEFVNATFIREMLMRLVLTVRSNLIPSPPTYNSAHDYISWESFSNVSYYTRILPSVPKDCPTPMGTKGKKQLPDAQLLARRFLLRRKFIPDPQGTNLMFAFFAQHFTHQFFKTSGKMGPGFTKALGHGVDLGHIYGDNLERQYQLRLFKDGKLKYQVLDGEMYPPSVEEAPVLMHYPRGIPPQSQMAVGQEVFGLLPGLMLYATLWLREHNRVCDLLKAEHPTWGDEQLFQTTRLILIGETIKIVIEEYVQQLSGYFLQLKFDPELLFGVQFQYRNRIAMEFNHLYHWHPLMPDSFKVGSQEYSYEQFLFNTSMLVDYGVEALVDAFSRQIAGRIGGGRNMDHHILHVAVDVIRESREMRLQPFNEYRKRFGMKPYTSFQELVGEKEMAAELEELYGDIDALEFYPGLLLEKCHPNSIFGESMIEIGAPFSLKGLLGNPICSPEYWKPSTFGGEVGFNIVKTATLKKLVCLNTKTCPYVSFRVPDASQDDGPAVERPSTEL

[9] = target: Histamine H3 receptor (Homo sapiens, UniProt Q9Y5N1)
Sequence of Histamine H3 receptor (Q9Y5N1 whole entry): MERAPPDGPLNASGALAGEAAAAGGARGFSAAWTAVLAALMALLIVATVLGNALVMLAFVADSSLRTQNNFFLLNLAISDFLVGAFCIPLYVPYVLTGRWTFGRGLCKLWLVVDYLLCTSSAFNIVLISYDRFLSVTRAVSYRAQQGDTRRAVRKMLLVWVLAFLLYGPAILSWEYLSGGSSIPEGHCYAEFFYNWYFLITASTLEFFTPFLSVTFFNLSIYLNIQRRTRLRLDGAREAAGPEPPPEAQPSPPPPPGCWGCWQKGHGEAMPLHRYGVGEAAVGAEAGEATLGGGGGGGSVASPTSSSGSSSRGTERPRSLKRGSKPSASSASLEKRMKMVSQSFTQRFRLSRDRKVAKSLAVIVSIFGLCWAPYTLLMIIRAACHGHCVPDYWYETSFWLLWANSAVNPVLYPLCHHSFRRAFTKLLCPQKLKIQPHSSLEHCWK

[10] = target: T4, Alpha-1A adrenergic receptor (Homo sapiens, UniProt P35348); assay type: functional, cell-based
T4 sequence (P35348 whole entry): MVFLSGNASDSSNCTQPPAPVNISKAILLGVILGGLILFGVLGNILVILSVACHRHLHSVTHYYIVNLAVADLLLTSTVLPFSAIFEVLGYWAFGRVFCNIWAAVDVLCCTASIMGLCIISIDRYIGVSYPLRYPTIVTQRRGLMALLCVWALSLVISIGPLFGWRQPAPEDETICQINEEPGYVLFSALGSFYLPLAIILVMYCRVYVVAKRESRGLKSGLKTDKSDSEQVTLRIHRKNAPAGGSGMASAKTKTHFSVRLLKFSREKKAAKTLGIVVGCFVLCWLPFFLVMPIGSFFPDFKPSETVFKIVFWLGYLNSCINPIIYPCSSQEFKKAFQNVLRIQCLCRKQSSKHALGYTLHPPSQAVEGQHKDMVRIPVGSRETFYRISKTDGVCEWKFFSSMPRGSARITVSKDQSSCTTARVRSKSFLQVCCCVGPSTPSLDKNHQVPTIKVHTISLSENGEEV

Measured: AC50
Further: assay procedure not described here.

Sequence of Voltage-dependent L-type calcium channel subunit alpha-1C (P22002 whole entry): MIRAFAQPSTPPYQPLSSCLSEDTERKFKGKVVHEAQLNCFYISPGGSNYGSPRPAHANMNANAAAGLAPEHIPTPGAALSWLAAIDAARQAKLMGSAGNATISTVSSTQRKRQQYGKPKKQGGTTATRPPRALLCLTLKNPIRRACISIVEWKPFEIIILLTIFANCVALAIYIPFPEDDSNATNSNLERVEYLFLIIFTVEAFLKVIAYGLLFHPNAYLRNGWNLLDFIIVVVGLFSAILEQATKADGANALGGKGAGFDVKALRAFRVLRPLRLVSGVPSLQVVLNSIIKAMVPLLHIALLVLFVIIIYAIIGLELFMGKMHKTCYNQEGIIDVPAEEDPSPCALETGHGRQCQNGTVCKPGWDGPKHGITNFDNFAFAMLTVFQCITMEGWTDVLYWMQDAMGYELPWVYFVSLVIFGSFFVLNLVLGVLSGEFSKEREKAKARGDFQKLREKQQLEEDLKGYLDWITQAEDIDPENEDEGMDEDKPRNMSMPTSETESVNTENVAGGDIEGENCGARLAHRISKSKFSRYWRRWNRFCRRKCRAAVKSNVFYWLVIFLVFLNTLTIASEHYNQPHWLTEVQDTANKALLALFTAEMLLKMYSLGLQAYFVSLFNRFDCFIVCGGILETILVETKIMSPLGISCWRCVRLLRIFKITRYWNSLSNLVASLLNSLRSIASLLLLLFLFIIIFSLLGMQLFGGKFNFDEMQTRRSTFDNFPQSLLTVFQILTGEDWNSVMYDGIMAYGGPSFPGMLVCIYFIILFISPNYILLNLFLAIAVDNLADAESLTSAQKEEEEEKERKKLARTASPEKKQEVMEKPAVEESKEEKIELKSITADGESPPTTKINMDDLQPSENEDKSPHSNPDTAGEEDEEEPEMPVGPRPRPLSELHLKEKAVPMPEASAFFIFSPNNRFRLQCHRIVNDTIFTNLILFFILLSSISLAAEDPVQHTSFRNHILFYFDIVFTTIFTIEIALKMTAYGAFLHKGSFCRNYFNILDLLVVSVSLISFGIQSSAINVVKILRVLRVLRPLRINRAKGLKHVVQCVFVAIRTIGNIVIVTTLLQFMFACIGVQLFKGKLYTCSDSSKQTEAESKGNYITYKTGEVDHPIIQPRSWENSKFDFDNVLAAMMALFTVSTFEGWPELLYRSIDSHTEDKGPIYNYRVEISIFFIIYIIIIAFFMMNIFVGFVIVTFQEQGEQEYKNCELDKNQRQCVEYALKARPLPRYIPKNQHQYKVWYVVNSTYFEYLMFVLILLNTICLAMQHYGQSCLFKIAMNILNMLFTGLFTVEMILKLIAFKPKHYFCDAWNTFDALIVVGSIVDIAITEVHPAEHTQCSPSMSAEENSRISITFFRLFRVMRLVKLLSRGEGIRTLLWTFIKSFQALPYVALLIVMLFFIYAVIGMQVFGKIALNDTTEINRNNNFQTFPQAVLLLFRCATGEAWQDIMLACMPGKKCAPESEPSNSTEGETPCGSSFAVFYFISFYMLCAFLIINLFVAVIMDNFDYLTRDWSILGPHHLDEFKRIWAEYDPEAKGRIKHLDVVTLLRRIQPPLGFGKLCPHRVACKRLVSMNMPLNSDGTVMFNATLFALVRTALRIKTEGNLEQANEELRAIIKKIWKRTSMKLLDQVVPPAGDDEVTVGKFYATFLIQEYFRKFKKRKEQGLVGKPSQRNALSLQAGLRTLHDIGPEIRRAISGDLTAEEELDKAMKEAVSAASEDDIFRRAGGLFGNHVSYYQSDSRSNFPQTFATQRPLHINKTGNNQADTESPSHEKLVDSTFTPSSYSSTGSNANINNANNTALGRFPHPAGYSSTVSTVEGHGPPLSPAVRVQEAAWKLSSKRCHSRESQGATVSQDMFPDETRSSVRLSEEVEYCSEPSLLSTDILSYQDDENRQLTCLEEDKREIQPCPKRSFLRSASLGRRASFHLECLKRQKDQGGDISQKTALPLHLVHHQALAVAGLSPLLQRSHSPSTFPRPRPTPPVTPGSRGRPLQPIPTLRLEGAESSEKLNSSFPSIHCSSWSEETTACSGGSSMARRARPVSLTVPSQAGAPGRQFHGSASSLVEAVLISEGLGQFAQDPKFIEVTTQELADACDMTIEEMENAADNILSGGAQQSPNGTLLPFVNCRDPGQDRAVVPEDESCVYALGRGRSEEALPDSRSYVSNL

CCN(CC)C(=O)C1(c2ccccc2)CC1CN (stereo not given)
> 30 µM: [1] | [2] | [3] | [4]

CN(C)C(=O)Oc1cccc([N+](C)(C)C)c1 [NEOSTIGMINE]
> 30 µM: [5] | [6] | [7] | [8] | [9] | [10]
